# Values quoted from earlier work as cited in patent US6565840B1, “Monomeric compositions effective as wound closure devices” (Closure Medical Corporation, priority 1996, dated 2003).
smiles,measurement,value
CC(=O)C(C(C)=O)C(C)=O [triacetylmethane],pKa,5.9
